# In article PMC12797170, “Potent Competitive Inhibitors of Ecto-5′-nucleotidase (CD73) based on 6‑(Het)aryl-7-deazapurine Ribonucleoside 5′‑O‑Bisphosphonates” (ACS Pharmacology & Translational Science, 2025):
# Read-outs that look alike come from different tables or passages of the source.
# Experiments:
# [1] = Kinetic solubility in PBS; assay type: physicochemical; conditions: phosphate-buffered saline, pH 7.4, aqueous buffer, kinetic from dmso stock
# Outline: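 Echo-MS quantitation with calibration from 0.05 to 4 μM, after 1:99 dilution of filtrate into 50% acetonitrile. Filtrate came from a 100 μM PBS (pH 7.4) solution equilibrated 2 h at room temperature with shaking, in duplicate.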
# [2] = Microsomal stability assay, human liver microsomes; assay type: in vitro ADME; conditions: for Mics (hu) comp remaining 60 min: 10 μM; for microsomal CLint at 10 µM: pooled liver microsomes, pH 7.4, read-out: Mics (hu) CLint
# [3] = in vitro; conditions: mouse, plasma
# [4] = in vitro; conditions: human, plasma
# [5] = system: MDA-MB-231 breast cancer cell line; assay: CellTox Green cytotoxicity assay; assay type: cell-based, human; conditions: 24 h
# Description: MDA-MB-231 cells were harvested and counted using an automated cell counter. A total of 2,500 cells per well were seeded in 20 μL of phenol red-free complete RPMI medium into black 384-well plates. Five μL of CD73 inhibitors (final concentration: […]) or 5 μL PBS (negative control) were added to each well, except for wells designed as maximal signal (dead cell) controls. Plates were incubated for 24 h at 37 °C in a humidified CO2 incubator. To generate the maximum signal control, 5 μL of lysis buffer (CellTox Green Cytotoxicity Assay, Promega) was added to the dead cell controls, followed by a 30 min incubation at room temperature. Subsequently, 25 μL/well of CellTox Green Dye (diluted 1:500 in the assay buffer; Promega) was added. Plates were incubated in the dark on an orbital shaker at 500–700 rpm for 15 min. Fluorescence was measured using an Infinite M1000 plate reader (Tecan) with excitation at 485–500 nm and emission at 520–530 nm. Data were analyzed in GraphPad Prism 10.
# Figure S2: Effect of CD73 inhibition on the viability of CD73-expressing breast cancer cell line. MDA-MB-231 cells were incubated with 10 µM CD73 inhibitors for 24 hours. Viability was assessed using the CellTox™ Green Cytotoxicity Assay.
# ± s.d. of technical triplicates (s.d., standard deviation).
# (1 picture or pasted object on this page, not shown here)
# [6] = Plasma protein binding, mouse plasma; assay type: in vitro ADME; conditions: mouse, plasma
# [7] = system: HeLa S3; assay: In vitro cytotoxic activity; assay type: cell-based; conditions: Homo sapiens
# Description: (§1) All the compounds were also tested for their in vitro cytotoxic activity on a small panel of four cancer cell lines (CCRF-CEM, HepG2, HeLa S3, HL-60) and nonmalignant human dermal fibroblasts (NHDF).
# [8] = system: HL-60; assay: In vitro cytotoxic activity; assay type: cell-based; conditions: Homo sapiens
# Description: as §1
# [9] = system: HepG2; assay: In vitro cytotoxic activity; assay type: cell-based; conditions: Homo sapiens
# Description: as §1
# [10] = system: CCRF-CEM; assay: In vitro cytotoxic activity; assay type: cell-based; conditions: Homo sapiens
# Description: as §1
# [11] = system: nonmalignant human dermal fibroblasts (NHDF); assay: In vitro cytotoxic activity; assay type: cell-based
# Description: as §1
# [12] = Plasma protein binding, equilibrium dialysis, human plasma; assay type: in vitro ADME; conditions: undiluted plasma
# [13] = Microsomal stability assay, mouse liver microsomes; assay type: in vitro ADME; conditions: for microsomal CLint at 10 µM: pooled liver microsomes, pH 7.4, read-out: Mics (m) CLint; for Mics (m) comp remaining 60 min: 10 μM
# [14] = In vivo pharmacokinetic study, intravenous; set-up: species or system male CD-1 mice; conditions: for clearance / half-life: plasma, 1 mg/kg; for half-life: footnote: t1/2 stability in plasma, text: half-life in mouse PK; for unbound plasma exposure relative to mouse CD73 Ki: mouse PK, unbound via mouse PPB, all time points
# Outline: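 Single intravenous dose in male CD-1 mice (n=3, 9 weeks, 29.2–33.7 g). Plasma levels measured by LC-MS/MS at 5, 15, 30, 60, 120, 240 and 480 min.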
# [15] = mouse plasma protein binding, read-out: PPB (m) (converted)
# [16] = human plasma protein binding, read-out: PPB (hu) (converted)
# [17] = male, CD-1, mouse, intravenous, in vivo PK in mice, unit inferred, read-out: clearance
# [18] = male, CD-1, mouse, iv, intravenous
# [19] = mouse, male CD-1 mice, intravenous, single dose, read-out: Cl (obs), observed clearance
# [20] = Tables 2 and 4, mouse plasma, read-out: fup, fraction unbound in mouse plasma
# [21] = Tables 1 and 3, human plasma as printed in footnote, read-out: fup, fraction unbound in human plasma
Structure (SMILES),solubility at 2 h [1] [µM],Mics (hu) comp remaining 60 min [2] [%],microsomal CLint at 10 µM [2] [µL/min/mg],half-life at 10 µM [3] [h],half-life at 10 µM [4] [h],"fraction unbound at 4 h, 100 µM [6, 15]","fraction unbound at 4 h, 100 µM [12, 16]",microsomal CLint at 10 µM [13] [µL/min/mg],"half-life [14, 18] [h]","clearance [14, 19] [L/h/kg]","fraction unbound at 4 h, 100 µM [6, 20]",Mics (m) comp remaining 60 min [13] [%],in vitro cytotoxicity against MDA-MB-231 [5],IC50 [7] [µM],IC50 [8] [µM],IC50 [9] [µM],IC50 [10] [µM],IC50 [11] [µM],further results
O=P(O)(O)CP(=O)(O)OC[C@H]1O[C@@H](n2ccc3c(-c4cccc5ccncc45)ncnc32)[C@H](O)[C@@H]1O [4A.18],56,105,< 1,> 2,> 2,0.727,0.195,< 1,–,–,–,–,nontoxic,> 10,> 10,> 10,> 10,> 10,–
Cc1nc(-c2cccc3ccccc23)c2ccn([C@@H]3O[C@H](COP(=O)(O)CP(=O)(O)O)[C@@H](O)[C@H]3O)c2n1 [18E.6],89,98,1,> 2,> 2,0.515,0.045,1,5.27,0.0192,0.51,95,nontoxic,> 10,> 10,> 10,> 10,> 10,"clearance [14, 17]: 0.0192 L/h/kg; unbound plasma exposure relative to mouse CD73 Ki [14]: well above"
O=P(O)(O)CP(=O)(O)OC[C@H]1O[C@@H](n2ccc3c(-c4ccc5c(c4)CCCC5)nc(Cl)nc32)[C@H](O)[C@@H]1O [7B.23],84,124,< 1,> 2,> 2,0.059,≤ 0.01,< 1,2.23,0.18,0.06,123,nontoxic,> 10,5.7,9.3,> 10,> 10,–
O=P(O)(O)CP(=O)(O)OC[C@H]1O[C@@H](n2ccc3c(-c4ccc(F)c5ccccc45)nc(Cl)nc32)[C@H](O)[C@@H]1O [7B.28],> 100,95,2,> 2,> 2,0.232,≤ 0.01,< 2,1.8,0.102,0.23,101,nontoxic,> 10,> 10,> 10,> 10,> 10,unbound plasma exposure relative to mouse CD73 Ki [14]: well above
O=P(O)(O)CP(=O)(O)OC[C@H]1O[C@@H](n2ccc3c(-c4ccc5ccccc5c4)ncnc32)[C@H](O)[C@@H]1O [4A.7],> 100,–,–,> 2,> 2,0.315,0.011,–,4.2,–,–,–,nontoxic,> 10,> 10,> 10,> 10,> 10,"clearance ([14]; male, CD-1, mouse, iv, in vivo PK in mice, unit inferred, read-out: clearance): 0.246 L/h/kg; fraction unbound at 4 h, 100 µM [12, 21]: 0.31"

# More lines, main results first:
solubility at 2 h [1] [µM],Mics (hu) comp remaining 60 min [2] [%],microsomal CLint at 10 µM [2] [µL/min/mg],half-life at 10 µM [3] [h],half-life at 10 µM [4] [h],"fraction unbound at 4 h, 100 µM [6, 15]","fraction unbound at 4 h, 100 µM [12, 16]",microsomal CLint at 10 µM [13] [µL/min/mg],"half-life [14, 18] [h]","clearance [14, 19] [L/h/kg]","fraction unbound at 4 h, 100 µM [6, 20]",Mics (m) comp remaining 60 min [13] [%],Structure (SMILES),in vitro cytotoxicity against MDA-MB-231 [5],IC50 [7] [µM],IC50 [8] [µM],IC50 [9] [µM],IC50 [10] [µM],IC50 [11] [µM],further results
85,101,< 1,> 2,> 2,0.216,0.005,< 1,2.33,0.0528,0.22,117,O=P(O)(O)CP(=O)(O)OC[C@H]1O[C@@H](n2ccc3c(-c4cccc5c4CCCC5)nc(Cl)nc32)[C@H](O)[C@@H]1O [7B.12],nontoxic,> 10,> 10,> 10,> 10,> 10,–
78,86,5,> 2,> 2,0.221,0.004,1,1.73,0.276,0.22,97,Cc1nc(-c2ccc3ccccc3c2)c2ccn([C@@H]3O[C@H](COP(=O)(O)CP(=O)(O)O)[C@@H](O)[C@H]3O)c2n1 [18E.7],nontoxic,> 10,> 10,> 10,> 10,> 10,–
> 100,104,< 1,> 2,> 2,0.036,≤ 0.01,2,3.08,0.186,–,–,"O=P(O)(O)CP(=O)(O)OC[C@H]1O[C@@H](n2ccc3c(-c4ccc5c(c4)CCCC5)nc(I)nc32)[C@H](O)[C@@H]1O [27H.23, [(5-{[2-Iodo-4-(5,6,7,8-tetrahydronaphthalen-2-yl)-7H-pyrrolo[2,3-d]pyrimidin-7-yl]-β-D-ribofuranosyl}oxy)phosphonomethyl]phosphonic Acid]",nontoxic,> 10,> 10,> 10,> 10,> 10,"clearance [14, 17]: 0.186 L/h/kg; fraction unbound at 4 h, 100 µM [12, 21]: 0.036"
